# Results as given in patent publication US6355799B1, “Substituted benzene compounds, process for their preparation, and herbicidal and defoliant compositions containing them” (ISK Americas Incorporated, priority 1997, dated 2002).
# How the values were obtained:
# Type in all cases: in vivo
# [1] = system: sicklepod (Cassia obtusifolia, CASOB); experiment: Post-emerge test, greenhouse herbicide activity screening; conditions: post-emerge, 14 days after application, rating scale 0-100
# Method in brief: (§1)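 Compounds in acetone were track-sprayed at 187 l/ha, 15–1000 g ai/ha, onto sandy loam pots. Pre-emerge seeds were sown one day before spraying, with surface watering afterwards. Post-emerge plants were at the 2–3 leaf stage and sprayed with 0.25% v/v non-ionic surfactant. Injury was rated 0–100 at 14 days.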
# [2] = system: large crabgrass (Digitaria sanguinalis, DIGSA); experiment: as above; conditions: post-emerge, 14 days after application, rating scale 0-100
# Method in brief: as §1
# [3] = system: ivyleaf morningglory (Ipomoea hederacea, IPOHE); experiment: as above; conditions: post-emerge, 14 days after application, rating scale 0-100
# Method in brief: as §1
# [4] = system: green foxtail (Setaria viridis, SETVI); experiment: as above; conditions: post-emerge, 14 days after application, rating scale 0-100
# Method in brief: as §1
# [5] = system: barnyardgrass (Echinochloa crus-galli, ECHCG); experiment: as above; conditions: post-emerge, 14 days after application, rating scale 0-100
# Method in brief: as §1
# [6] = system: lambsquarters (Chenopodium album, CHEAL); experiment: as above; conditions: post-emerge, 14 days after application, rating scale 0-100
# Method in brief: as §1
# [7] = system: velvetleaf (Abutilon theophrasti, ABUTH); experiment: as above; conditions: post-emerge, 14 days after application, rating scale 0-100
# Method in brief: as §1
# [8] = system: redroot pigweed (Amaranthus retroflexus, AMARE); experiment: as above; conditions: post-emerge, 14 days after application, rating scale 0-100
# Method in brief: as §1
# [9] = system: field corn (Zea mays L., var. Dekalb 535, CORN); experiment: Post-emerge test, crop safety; conditions: post-emerge, 14 days after application, rating scale 0-100
# Method in brief: (§2)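 Plants grown in 10 cm pots of sandy loam mix received acetone-dissolved compounds through a moving flat-fan nozzle. Doses ranged from 15 to 1000 g ai/ha. Pre-emerge pots were seeded one day earlier, post-emerge pots 8–21 days earlier. Fourteen days on, each pot was graded 0–100 for damage.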
# [10] = system: upland rice (Oryza sp., var. Tebonnet, RICE); experiment: Post-emerge test, crop safety; conditions: post-emerge, 14 days after application, rating scale 0-100
# Method in brief: as §2
# [11] = system: sicklepod (Cassia obtusifolia, CASOB); experiment: Pre-emerge test, greenhouse herbicide activity screening; conditions: for phytotoxicity rating CASOB: pre-emerge, 14 days after application, scale 0-100
# Method in brief: (§3)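 Rating: 0–100 visual injury, 14 DAA. Application: acetone, 187 l/ha, 15–1000 g ai/ha, flat-fan track sprayer with nozzle 40–45 cm above soil or canopy. Post-emerge runs used 0.25% v/v surfactant on 2–3 leaf plants.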
# [12] = system: large crabgrass (Digitaria sanguinalis, DIGSA); experiment: as above; conditions: for phytotoxicity rating DIGSA: pre-emerge, 14 days after application, scale 0-100
# Method in brief: as §3
# [13] = system: ivyleaf morningglory (Ipomoea hederacea, IPOHE); experiment: as above; conditions: for phytotoxicity rating IPOHE: pre-emerge, 14 days after application, scale 0-100
# Method in brief: as §3
# [14] = system: green foxtail (Setaria viridis, SETVI); experiment: as above; conditions: for phytotoxicity rating SETVI: pre-emerge, 14 days after application, scale 0-100
# Method in brief: as §3
# [15] = system: barnyardgrass (Echinochloa crus-galli, ECHCG); experiment: as above; conditions: for phytotoxicity rating ECHCG: pre-emerge, 14 days after application, scale 0-100
# Method in brief: as §3
# [16] = system: lambsquarters (Chenopodium album, CHEAL); experiment: as above; conditions: for phytotoxicity rating CHEAL: pre-emerge, 14 days after application, scale 0-100
# Method in brief: as §3
# [17] = system: velvetleaf (Abutilon theophrasti, ABUTH); experiment: as above; conditions: for phytotoxicity rating ABUTH: pre-emerge, 14 days after application, scale 0-100
# Method in brief: as §3
# [18] = system: johnsongrass (Sorghum halepense, SORHA); experiment: as above; conditions: for phytotoxicity rating SORHA: pre-emerge, 14 days after application, scale 0-100
# Method in brief: as §3
# [19] = system: redroot pigweed (Amaranthus retroflexus, AMARE); experiment: as above; conditions: for phytotoxicity rating AMARE: pre-emerge, 14 days after application, scale 0-100
# Method in brief: as §2
# [20] = system: field corn (Zea mays L., var. Dekalb 535, CORN); experiment: Pre-emerge test, crop safety; conditions: for phytotoxicity rating CORN (crop damage): pre-emerge, 14 days after application, scale 0-100
# Method in brief: (§4)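 Fourteen days after spraying, crop and weed injury was graded visually from 0, no effect, to 100, every plant dead. Test substances were dissolved in acetone and applied at 15–1000 g ai/ha with a flat-fan nozzle. Application was either pre-emergence, one day after sowing, or post-emergence at the 2–3 leaf stage.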
# [21] = system: upland rice (Oryza sp., var. Tebonnet, RICE); experiment: Pre-emerge test, crop safety; conditions: for phytotoxicity rating RICE (crop damage): pre-emerge, 14 days after application, scale 0-100
# Method in brief: as §4
# [22] = 250 g ai/ha, phytotoxicity rating 0-100, 14 days after application
# [23] = 250 g ai/ha, crop damage rating 0-100, 14 days after application
compound,measurement,setting,value
COc1c(Cl)cc(F)c(-n2c(=O)cc(C(F)(F)F)n(C)c2=O)c1NC(=O)COc1ccc(Cl)cc1Cl [2-154],CASOB phytotoxicity rating,[1]; 63 g ai/ha,50
same,CASOB phytotoxicity rating,[1]; 250 g ai/ha,100
same,DIGSA phytotoxicity rating,[2]; 63 g ai/ha,10
same,DIGSA phytotoxicity rating,[2]; 250 g ai/ha,85
same,IPOHE phytotoxicity rating,[3]; 63 g ai/ha,100
same,IPOHE phytotoxicity rating,[3]; 250 g ai/ha,100
same,SETVI phytotoxicity rating,[4]; 63 g ai/ha,40
same,SETVI phytotoxicity rating,[4]; 250 g ai/ha,95
same,ECHCG phytotoxicity rating,[5]; 63 g ai/ha,80
same,ECHCG phytotoxicity rating,[5]; 250 g ai/ha,95
same,CHEAL phytotoxicity rating,[6]; 63 g ai/ha,100
same,CHEAL phytotoxicity rating,[6]; 250 g ai/ha,100
same,ABUTH phytotoxicity rating,[7]; 63 g ai/ha,100
same,ABUTH phytotoxicity rating,[7]; 250 g ai/ha,100
same,AMARE phytotoxicity rating,[8]; 63 g ai/ha,100
same,AMARE phytotoxicity rating,[8]; 250 g ai/ha,100
same,CORN phytotoxicity rating (crop damage),[9]; 63 g ai/ha,10
same,CORN phytotoxicity rating (crop damage),[9]; 250 g ai/ha,85
same,RICE phytotoxicity rating (crop damage),[10]; 63 g ai/ha,65
same,RICE phytotoxicity rating (crop damage),[10]; 250 g ai/ha,90
same,phytotoxicity rating CASOB,[11]; 63 g ai/ha,60
same,phytotoxicity rating CASOB,[11]; 250 g ai/ha,95
same,phytotoxicity rating DIGSA,[12]; 63 g ai/ha,85
same,phytotoxicity rating DIGSA,[12]; 250 g ai/ha,95
same,phytotoxicity rating IPOHE,[13]; 63 g ai/ha,80
same,phytotoxicity rating IPOHE,[13]; 250 g ai/ha,100
same,phytotoxicity rating SETVI,[14]; 63 g ai/ha,70
same,phytotoxicity rating SETVI,[14]; 250 g ai/ha,100
same,phytotoxicity rating ECHCG,[15]; 63 g ai/ha,50
same,phytotoxicity rating ECHCG,[15]; 250 g ai/ha,95
same,phytotoxicity rating CHEAL,[16]; 63 g ai/ha,100
same,phytotoxicity rating CHEAL,[16]; 250 g ai/ha,100
same,phytotoxicity rating ABUTH,[17]; 63 g ai/ha,100
same,phytotoxicity rating ABUTH,[17]; 250 g ai/ha,100
same,phytotoxicity rating SORHA,[18]; 63 g ai/ha,80
same,phytotoxicity rating SORHA,[18]; 250 g ai/ha,95
same,phytotoxicity rating AMARE,[19]; 63 g ai/ha,100
same,phytotoxicity rating AMARE,[19]; 250 g ai/ha,100
same,phytotoxicity rating CORN (crop damage),[20]; 63 g ai/ha,10
same,phytotoxicity rating CORN (crop damage),[20]; 250 g ai/ha,90
same,phytotoxicity rating RICE (crop damage),[21]; 63 g ai/ha,35
same,phytotoxicity rating RICE (crop damage),[21]; 250 g ai/ha,70
COc1c(Cl)cc(F)c(-n2c(=O)cc(C(F)(F)F)n(N)c2=O)c1NC(=O)C=Cc1ccccc1 [2-185],CASOB phytotoxicity rating,[1]; 63 g ai/ha,40
same,CASOB phytotoxicity rating,[1]; 250 g ai/ha,60
same,DIGSA phytotoxicity rating,[2]; 63 g ai/ha,0
same,DIGSA phytotoxicity rating,[2]; 250 g ai/ha,10
same,IPOHE phytotoxicity rating,[3]; 63 g ai/ha,60
same,IPOHE phytotoxicity rating,[3]; 250 g ai/ha,80
same,SETVI phytotoxicity rating,[4]; 63 g ai/ha,0
same,SETVI phytotoxicity rating,[4]; 250 g ai/ha,20
same,ECHCG phytotoxicity rating,[5]; 63 g ai/ha,0
same,ECHCG phytotoxicity rating,[5]; 250 g ai/ha,0
same,CHEAL phytotoxicity rating,[6]; 63 g ai/ha,70
same,CHEAL phytotoxicity rating,[6]; 250 g ai/ha,100
same,ABUTH phytotoxicity rating,[7]; 63 g ai/ha,100
same,ABUTH phytotoxicity rating,[7]; 250 g ai/ha,100
same,AMARE phytotoxicity rating,[8]; 63 g ai/ha,80
same,AMARE phytotoxicity rating,[8]; 250 g ai/ha,100
same,CORN phytotoxicity rating (crop damage),[9]; 63 g ai/ha,0
same,CORN phytotoxicity rating (crop damage),[9]; 250 g ai/ha,5
same,RICE phytotoxicity rating (crop damage),[10]; 63 g ai/ha,20
same,RICE phytotoxicity rating (crop damage),[10]; 250 g ai/ha,35
same,phytotoxicity rating CASOB,[11]; 63 g ai/ha,0
same,phytotoxicity rating CASOB,[11]; 250 g ai/ha,60
same,phytotoxicity rating DIGSA,[12]; 63 g ai/ha,20
same,phytotoxicity rating DIGSA,[12]; 250 g ai/ha,40
same,phytotoxicity rating IPOHE,[13]; 63 g ai/ha,60
same,phytotoxicity rating IPOHE,[13]; 250 g ai/ha,60
same,phytotoxicity rating SETVI,[14]; 63 g ai/ha,30
same,phytotoxicity rating SETVI,[14]; 250 g ai/ha,50
same,phytotoxicity rating ECHCG,[15]; 63 g ai/ha,10
same,phytotoxicity rating ECHCG,[15]; 250 g ai/ha,10
same,phytotoxicity rating CHEAL,[16]; 63 g ai/ha,100
same,phytotoxicity rating CHEAL,[16]; 250 g ai/ha,100
same,phytotoxicity rating ABUTH,[17]; 63 g ai/ha,90
same,phytotoxicity rating ABUTH,[17]; 250 g ai/ha,100
same,phytotoxicity rating SORHA,[18]; 63 g ai/ha,20
same,phytotoxicity rating SORHA,[18]; 250 g ai/ha,20
same,phytotoxicity rating AMARE,[19]; 63 g ai/ha,100
same,phytotoxicity rating AMARE,[19]; 250 g ai/ha,100
same,phytotoxicity rating CORN (crop damage),[20]; 63 g ai/ha,0
same,phytotoxicity rating CORN (crop damage),[20]; 250 g ai/ha,5
same,phytotoxicity rating RICE (crop damage),[21]; 63 g ai/ha,20
same,phytotoxicity rating RICE (crop damage),[21]; 250 g ai/ha,40
N#CCOc1c(Cl)cc(F)c(-n2c(=O)cc(C(F)(F)F)n(N)c2=O)c1NC(=O)c1ccc2ccccc2c1 [2-188],CASOB phytotoxicity rating,[1]; 63 g ai/ha,55
same,CASOB phytotoxicity rating,[1]; 250 g ai/ha,90
same,DIGSA phytotoxicity rating,[2]; 63 g ai/ha,0
same,DIGSA phytotoxicity rating,[2]; 250 g ai/ha,10
same,IPOHE phytotoxicity rating,[3]; 63 g ai/ha,100
same,IPOHE phytotoxicity rating,[3]; 250 g ai/ha,100
same,SETVI phytotoxicity rating,[4]; 63 g ai/ha,10
same,SETVI phytotoxicity rating,[4]; 250 g ai/ha,20
same,ECHCG phytotoxicity rating,[5]; 63 g ai/ha,30
same,ECHCG phytotoxicity rating,[5]; 250 g ai/ha,40
same,CHEAL phytotoxicity rating,[6]; 63 g ai/ha,80
same,CHEAL phytotoxicity rating,[6]; 250 g ai/ha,100
same,ABUTH phytotoxicity rating,[7]; 63 g ai/ha,100
same,ABUTH phytotoxicity rating,[7]; 250 g ai/ha,100
same,AMARE phytotoxicity rating,[8]; 63 g ai/ha,85
same,AMARE phytotoxicity rating,[8]; 250 g ai/ha,90
same,CORN phytotoxicity rating (crop damage),[9]; 63 g ai/ha,25
same,CORN phytotoxicity rating (crop damage),[9]; 250 g ai/ha,45
same,RICE phytotoxicity rating (crop damage),[10]; 63 g ai/ha,20
same,RICE phytotoxicity rating (crop damage),[10]; 250 g ai/ha,40
same,Pre-emerge Herbicidal Activity CASOB,[11]; [22],0
same,phytotoxicity rating CASOB,[11]; 63 g ai/ha,0
same,Pre-emerge Herbicidal Activity DIGSA,[12]; [22],60
same,phytotoxicity rating DIGSA,[12]; 63 g ai/ha,10
same,Pre-emerge Herbicidal Activity IPOHE,[13]; [22],90
same,phytotoxicity rating IPOHE,[13]; 63 g ai/ha,10
same,Pre-emerge Herbicidal Activity SETVI,[14]; [22],50
same,phytotoxicity rating SETVI,[14]; 63 g ai/ha,30
same,Pre-emerge Herbicidal Activity ECHCG,[15]; [22],60
same,phytotoxicity rating ECHCG,[15]; 63 g ai/ha,30
same,Pre-emerge Herbicidal Activity CHEAL,[16]; [22],100
same,phytotoxicity rating CHEAL,[16]; 63 g ai/ha,100
same,Pre-emerge Herbicidal Activity ABUTH,[17]; [22],100
same,phytotoxicity rating ABUTH,[17]; 63 g ai/ha,90
same,Pre-emerge Herbicidal Activity SORHA,[18]; [22],30
same,phytotoxicity rating SORHA,[18]; 63 g ai/ha,10
same,Pre-emerge Herbicidal Activity AMARE,[19]; [22],80
same,phytotoxicity rating AMARE,[19]; 63 g ai/ha,100
same,Pre-emerge Herbicidal Activity CORN,[20]; [23],0
same,phytotoxicity rating CORN (crop damage),[20]; 63 g ai/ha,0
same,Pre-emerge Herbicidal Activity RICE,[21]; [23],10
same,phytotoxicity rating RICE (crop damage),[21]; 63 g ai/ha,10
